Data published in ChEMBL document CHEMBL1148888, “Synthesis and antibacterial activity of 5-deoxy-5-episubstituted arbekacin derivatives” (2007).
≈ marks a conversion by molar mass, not a printed value.

What was measured:
Assay type in all cases: functional
Pseudomonas aeruginosa [1] = experiment: Antibacterial activity against Pseudomonas aeruginosa PAO1 by agar dilution method
Staphylococcus aureus [2] = experiment: Antibacterial activity against Staphylococcus aureus 209P JC1 by agar dilution method
Staphylococcus aureus [3] = experiment: Antibacterial activity against methicillin-resistant Staphylococcus aureus MSC03571 by agar dilution method
Escherichia coli = experiment: Antibacterial activity against Escherichia coli NIH JC2 by agar dilution method
Pseudomonas aeruginosa [4] = experiment: Antibacterial activity against Pseudomonas aeruginosa GN315 by agar dilution method
Staphylococcus aureus [5] = experiment: Antibacterial activity against methicillin-resistant Staphylococcus aureus MF490 by agar dilution method
Pseudomonas aeruginosa [6] = experiment: Antibacterial activity against Pseudomonas aeruginosa N101 by agar dilution method
Staphylococcus aureus [7] = experiment: Antibacterial activity against methicillin-resistant Staphylococcus aureus by agar dilution method
[8] = Pseudomonas aeruginosa, PAO1, read-out: MIC
[9] = Staphylococcus aureus, 209P JC1, read-out: MIC
[10] = Staphylococcus aureus, read-out: MIC
[11] = Escherichia coli, NIH JC2, read-out: MIC
[12] = Pseudomonas aeruginosa, read-out: MIC
[13] = Staphylococcus aureus, read-out: MIC50
[14] = Staphylococcus aureus, read-out: MIC90

Structure (SMILES)	MIC (Pseudomonas aeruginosa [1]; [8])	MIC (Staphylococcus aureus [2]; [9])	MIC (Staphylococcus aureus [3]; [10])	MIC (Escherichia coli; [11])	MIC (Pseudomonas aeruginosa [4]; [12])	MIC (Staphylococcus aureus [5]; [10])	MIC (Pseudomonas aeruginosa [6]; [12])	MIC (Staphylococcus aureus [3])	MIC50 (Staphylococcus aureus [7]; [13])	MIC90 (Staphylococcus aureus [7]; [14])	MIC (Staphylococcus aureus [5])	MIC (Pseudomonas aeruginosa [1])	MIC (Staphylococcus aureus [2])	MIC50 (Staphylococcus aureus [7])	MIC90 (Staphylococcus aureus [7])	MIC (Escherichia coli)	MIC (Pseudomonas aeruginosa [4])	MIC (Pseudomonas aeruginosa [6])
NCCN[C@H]1[C@@H](O[C@H]2O[C@H](CO)[C@@H](O)[C@H](N)[C@H]2O)[C@H](NC(=O)[C@@H](O)CCN)C[C@H](N)[C@H]1O[C@H]1O[C@H](CN)CC[C@H]1N	2 µg/mL (≈ 3.36 µM)	0.13 µg/mL (≈ 0.219 µM)	4 µg/mL (≈ 6.73 µM)	4 µg/mL (≈ 6.73 µM)	64 µg/mL (≈ 108 µM)	2 µg/mL (≈ 3.36 µM)												
CN[C@@H]1[C@@H](O)[C@@H](O[C@@H]2[C@H](O)[C@H](O[C@H]3O[C@H](CN)CC[C@H]3N)[C@@H](N)C[C@H]2NC(=O)[C@@H](O)CCN)O[C@H](CO)[C@H]1O	2 µg/mL (≈ 3.53 µM)	0.13 µg/mL (≈ 0.229 µM)	16 µg/mL (≈ 28.2 µM)	2 µg/mL (≈ 3.53 µM)	32 µg/mL (≈ 56.5 µM)	4 µg/mL (≈ 7.06 µM)												
NCC[C@H](O)C(=O)N[C@@H]1C[C@H](N)[C@@H](O[C@H]2O[C@H](CN)CC[C@H]2N)[C@@H](NCc2ccccc2)[C@H]1O[C@H]1O[C@H](CO)[C@@H](O)[C@H](N)[C@H]1O	32 µg/mL (≈ 49.9 µM)	0.13 µg/mL (≈ 0.203 µM)	32 µg/mL (≈ 49.9 µM)	4 µg/mL (≈ 6.23 µM)	128 µg/mL (≈ 199 µM)	8 µg/mL (≈ 12.5 µM)	1 µg/mL (≈ 1.56 µM)											
CN[C@H]1[C@@H](O[C@H]2O[C@H](CO)[C@@H](O)[C@H](N)[C@H]2O)[C@H](NC(=O)[C@@H](O)CCN)C[C@H](N)[C@H]1O[C@H]1O[C@H](CN)CC[C@H]1N	4 µg/mL (≈ 7.07 µM)	0.25 µg/mL (≈ 0.442 µM)	16 µg/mL (≈ 28.3 µM)	2 µg/mL (≈ 3.54 µM)	128 µg/mL (≈ 226 µM)	4 µg/mL (≈ 7.07 µM)												
NCC[C@H](O)C(=O)N[C@@H]1C[C@H](N)[C@@H](O[C@H]2O[C@H](CN)CC[C@H]2N)C(O)[C@H]1O[C@H]1O[C@H](CO)[C@@H](O)[C@H](N)[C@H]1O (single isomer, unassigned; form 1) [ARBEKACIN]	2 µg/mL (≈ 3.62 µM)	0.06 µg/mL (≈ 0.109 µM)		1 µg/mL (≈ 1.81 µM)	8 µg/mL (≈ 14.5 µM)		0.25 µg/mL (≈ 0.452 µM)	2 µg/mL (≈ 3.62 µM)	0.5 µg/mL (≈ 0.905 µM)	1 µg/mL (≈ 1.81 µM)	2 µg/mL (≈ 3.62 µM)							
NCC[C@H](O)C(=O)N[C@@H]1C[C@H](N)[C@@H](O[C@H]2O[C@H](CN)CC[C@H]2N)C(O)[C@H]1O[C@H]1O[C@H](CO)[C@@H](O)[C@H](N)[C@H]1O (single isomer, unassigned; form 2) [ARBEKACIN]								16 µg/mL (≈ 29 µM)			64 µg/mL (≈ 116 µM)	2 µg/mL (≈ 3.62 µM)	0.06 µg/mL (≈ 0.109 µM)	1 µg/mL (≈ 1.81 µM)	2 µg/mL (≈ 3.62 µM)	1 µg/mL (≈ 1.81 µM)	16 µg/mL (≈ 29 µM)	0.25 µg/mL (≈ 0.452 µM)
NCC[C@H](O)C(=O)N[C@@H]1C[C@H](N)[C@@H](O[C@H]2O[C@H](CN)CC[C@H]2N)[C@@H](Cl)[C@H]1O[C@H]1O[C@H](CO)[C@@H](O)[C@H](N)[C@H]1O	2 µg/mL (≈ 3.5 µM)	0.1 µg/mL (≈ 0.175 µM)	6.25 µg/mL (≈ 10.9 µM)	1.56 µg/mL (≈ 2.73 µM)	50 µg/mL (≈ 87.6 µM)	3.13 µg/mL (≈ 5.48 µM)	0.5 µg/mL (≈ 0.876 µM)											
CN(C)[C@H]1[C@@H](O[C@H]2O[C@H](CO)[C@@H](O)[C@H](N)[C@H]2O)[C@H](NC(=O)[C@@H](O)CCN)C[C@H](N)[C@H]1O[C@H]1O[C@H](CN)CC[C@H]1N	32 µg/mL (≈ 55.2 µM)	1 µg/mL (≈ 1.73 µM)	> 64 µg/mL	16 µg/mL (≈ 27.6 µM)	> 32 µg/mL	32 µg/mL (≈ 55.2 µM)												
NCC[C@H](O)C(=O)N[C@@H]1C[C@H](N)[C@@H](O[C@H]2O[C@H](CN)CC[C@H]2N)[C@@H](N)[C@H]1O[C@H]1O[C@H](CO)[C@@H](O)[C@H](N)[C@H]1O	2 µg/mL (≈ 3.63 µM)	0.13 µg/mL (≈ 0.236 µM)	4 µg/mL (≈ 7.25 µM)	2 µg/mL (≈ 3.63 µM)	16 µg/mL (≈ 29 µM)	2 µg/mL (≈ 3.63 µM)	0.5 µg/mL (≈ 0.906 µM)		0.5 µg/mL (≈ 0.906 µM)	0.5 µg/mL (≈ 0.906 µM)								
